Data reported in PubChem BioAssay (NCI).
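These data come from cells grown in 96-well plates and exposed to compound for 48 hours at five concentrations. Abbreviation: GI50, concentration required for 50% inhibition of growth. Definition used: TGI = concentration required for complete inhibition of growth.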

Legend:
Experiment in all cases: growth of human tumour cells (NCI), 48 h
[1] = test system: OVCAR-4 ovarian
[2] = test system: MDA-MB-231 breast
[3] = test system: COLO 205 colon
[4] = test system: UO-31 renal
[5] = test system: BT-549 breast
[6] = test system: CCRF-CEM leukemia
[7] = test system: RPMI-8226 leukemia
[8] = test system: HS 578T breast
[9] = test system: NCI-H460 lung
[10] = test system: TK-10 renal
[11] = test system: MDA-MB-435
[12] = test system: A498 renal
[13] = test system: T-47D breast
[14] = test system: MOLT-4 leukemia
[15] = test system: A549 NSCLC
[16] = test system: K-562 leukemia
[17] = test system: HT29 colon
[18] = test system: UACC-257 melanoma
[19] = test system: HOP-92 NSCLC
[20] = test system: NCI/ADR-RES ovarian
[21] = test system: ACHN renal
[22] = test system: EKVX NSCLC
[23] = test system: SNB-75 CNS
[24] = test system: OVCAR-3 ovarian
[25] = test system: RXF 393 renal
[26] = test system: LOX IMVI melanoma
[27] = test system: HL-60(TB) leukemia
[28] = test system: IGROV1 ovarian
[29] = test system: SW-620 colon
[30] = test system: SR leukemia
[31] = test system: OVCAR-5 ovarian
[32] = test system: UACC-62 melanoma
[33] = test system: HCT-15 colon
[34] = test system: OVCAR-8 ovarian
[35] = test system: SNB-19 CNS
[36] = test system: NCI-H23 lung
[37] = test system: SK-OV-3 ovarian
[38] = test system: SF-295 CNS
[39] = test system: M14 melanoma
[40] = test system: HOP-62 NSCLC
[41] = test system: DU-145 prostate
[42] = test system: SF-268 CNS
[43] = test system: SF-539 CNS
[44] = test system: NCI-H226 lung
[45] = test system: U251 CNS
[46] = test system: SK-MEL-5 melanoma
[47] = test system: CAKI-1 renal
[48] = test system: HCT-116 colon
[49] = test system: MCF7 breast
[50] = test system: HCC-2998 colon
[51] = test system: NCI-H522 lung
[52] = test system: SK-MEL-2 melanoma
[53] = test system: KM12 colon
[54] = test system: SN12C renal
[55] = test system: SK-MEL-28 melanoma

SMILES: N#Cc1ccc(CSc2ncnc3nc[nH]c23)cc1
- GI50 [1]: 97.4 µM
- GI50 [2]: 94.4 µM
- GI50 [3]: 52.2 µM
- GI50 [4]: 30.7 µM
- GI50 [5]: 95 µM
- GI50 [6]: 95.1 µM
- GI50 [7]: 54.9 µM
- GI50 [8]: 72 µM
- GI50 [9]: 43 µM
- GI50 [10]: 37.3 µM
- GI50 [11]: 79 µM
- GI50 [12]: 80 µM
- GI50 [13]: 80.7 µM
- GI50 [14]: 92.8 µM
- GI50 [15]: 92.4 µM
- GI50 [16]: 63.7 µM
- GI50 [17]: 77.3 µM
- GI50 [18]: 73.3 µM
- GI50 [19]: 15.8 µM
- TGI [19]: 79.5 µM
- GI50 [20]: 54.3 µM
- GI50 [21]: 38.4 µM
- GI50 [22]: 90.1 µM
- GI50 [23]: 6.86 µM
- TGI [23]: 66.3 µM

SMILES: C=CCNc1nc(O)c(/C=C2\C=Nc3ncccc32)s1
- GI50 [24]: 2210 nM
- TGI [24]: 7.29 µM
- GI50 [1]: 3.03 µM
- TGI [1]: 24.9 µM
- GI50 [25]: 2070 nM
- TGI [25]: 4.25 µM
- GI50 [26]: 2730 nM
- TGI [26]: > 100 µM
- GI50 [2]: 2.44 µM
- TGI [2]: 6.63 µM
- GI50 [4]: 3.36 µM
- TGI [4]: > 100 µM
- GI50 [27]: 2100 nM
- TGI [27]: 5.27 µM
- GI50 [28]: 2860 nM
- TGI [28]: > 100 µM
- GI50 [7]: 2.26 µM
- TGI [7]: 6.71 µM
- GI50 [29]: 2130 nM
- TGI [29]: 9.25 µM
- GI50 [30]: 408 nM
- TGI [30]: 88.3 µM
- GI50 [31]: 2660 nM
- TGI [31]: > 100 µM
- GI50 [32]: 1690 nM
- TGI [32]: 4.22 µM
- GI50 [8]: 2.03 µM
- TGI [8]: 9.66 µM
- GI50 [33]: 2620 nM
- TGI [33]: > 100 µM
- GI50 [9]: 2.74 µM
- TGI [9]: 9.96 µM
- GI50 [10]: 2.18 µM
- TGI [10]: 16.8 µM
- GI50 [11]: 1.94 µM
- TGI [11]: 4.96 µM
- GI50 [12]: 1.5 µM
- TGI [12]: 3.7 µM
- GI50 [13]: 2.27 µM
- TGI [13]: 7.38 µM
- GI50 [34]: 3.41 µM
- TGI [34]: 10.3 µM
- GI50 [35]: 2320 nM
- TGI [35]: 7.29 µM
- GI50 [14]: 2.64 µM
- TGI [14]: 7.95 µM
- GI50 [36]: 1930 nM
- TGI [36]: 6.28 µM
- GI50 [37]: 2210 nM
- TGI [37]: 8.66 µM
- GI50 [15]: 7.08 µM
- TGI [15]: 19.4 µM
- GI50 [38]: 2500 nM
- TGI [38]: > 100 µM
- GI50 [39]: 3.45 µM
- TGI [39]: 13.1 µM
- GI50 [40]: 1840 nM
- TGI [40]: 5.77 µM
- GI50 [16]: 4.26 µM
- TGI [16]: > 100 µM
- GI50 [41]: 2210 nM
- TGI [41]: 21.6 µM
- GI50 [42]: 2100 nM
- TGI [42]: 6.92 µM
- GI50 [43]: 524 nM
- TGI [43]: 2060 nM
- GI50 [17]: 3.05 µM
- TGI [17]: > 100 µM
- GI50 [44]: 1990 nM
- TGI [44]: 21.6 µM
- GI50 [45]: 2070 nM
- TGI [45]: 4.35 µM
- GI50 [46]: 2860 nM
- TGI [46]: > 100 µM
- GI50 [18]: 9.12 µM
- TGI [18]: 21.2 µM
- GI50 [47]: 2220 nM
- TGI [47]: > 100 µM
- GI50 [48]: 1520 nM
- TGI [48]: > 100 µM
- GI50 [19]: 0.227 µM
- TGI [19]: 6.38 µM
- GI50 [49]: 2200 nM
- TGI [49]: > 100 µM
- GI50 [50]: 3.4 µM
- TGI [50]: 58.5 µM
- GI50 [51]: 725 nM
- TGI [51]: 4.85 µM
- GI50 [20]: 5.05 µM
- TGI [20]: > 100 µM
- GI50 [21]: 2.21 µM
- TGI [21]: > 100 µM
- GI50 [52]: 2230 nM
- TGI [52]: 5.09 µM
- GI50 [53]: 2510 nM
- TGI [53]: 8.23 µM
- GI50 [54]: 2100 nM
- TGI [54]: 5.52 µM
- GI50 [22]: 3.4 µM
- TGI [22]: > 100 µM
- GI50 [55]: 2520 nM
- TGI [55]: 9.14 µM
- GI50 [23]: 1.51 µM
- TGI [23]: 2.96 µM
